From US8076297B2, “Pharmaceutical composition containing polypeptide fragments of serralysins” (Centro De Ingenieria Genetica Y Biotecnologia, priority 2004, dated 2011) come the findings set out here.

For the first experiment, the system named is HEp-2 cells. In words: Anti-proliferative assay on HEp-2 cells, MTT method. Format: cell-based, human. Conditions: 3 μg/mL. As to the method: For the characterization of the antiproliferative activity of MG2327 “in vitro” a panel of human cell lines was evaluated (table 1). A total of 2000 cells, except for PBMC (20000), were seeded in 96 wells culture wells, and different concentrations of MG2327 were added. After 72 hours, the number of survival cells was estimated by addition of MTT (Skehan, P., Storeng, R., Scudiero, D., Monks, A., Mcmahon, J., Vistica, D., Warren, J. T., Bokesch, H., Kenney, S. and BOYD, M. R. 1990. J Natl Cancer Inst. 82:1107). The soluble formazan products were detected at 540 nm in a multiscan plate reader.
On the technique in general: Tetrazolium assays rely on reduction of a dye to a coloured formazan, in cell work by metabolically active cells.
`N.N.[Cl][Pt][Cl]` [Cisplatin, reference compound] gave a proliferation of 40%.
On the same count and under the same terms, with `COc1cccc2c1C(=O)c1c(O)c3c(c(O)c1C2=O)C[C@@](O)(C(=O)CO)C[C@@H]3O[C@H]1C[C@H](N)[C@H](O)[C@H](C)O1` [DXR, Doxorubicine, reference compound] the figure was 40%; with `CC(=O)O[C@H]1C(=O)[C@@]2(C)[C@H]([C@H](OC(=O)c3ccccc3)[C@]3(O)C[C@H](OC(=O)[C@H](O)[C@@H](NC(=O)c4ccccc4)c4ccccc4)C(C)=C1C3(C)C)[C@]1(OC(C)=O)CO[C@@H]1C[C@@H]2O` [Taxol, reference compound], 40%; with `CC[C@]1(O)C[C@H]2CN(CCc3c([nH]c4ccccc34)[C@@](C(=O)OC)(c3cc4c(cc3OC)N(C=O)[C@H]3[C@@](O)(C(=O)OC)[C@H](OC(C)=O)[C@]5(CC)C=CCN6CC[C@]43[C@@H]65)C2)C1` [Vincristine, reference compound], 40%.
The same measure, in the same setting: with `CC[C@]1(O)C[C@@H]2CN(CCc3c([nH]c4ccccc34)[C@@](C(=O)OC)(c3cc4c(cc3OC)N(C)[C@H]3[C@@](O)(C(=O)OC)[C@H](OC(C)=O)[C@]5(CC)C=CCN6CC[C@]43[C@@H]65)C2)C1` [Vinvlastine, reference compound] the figure was 40%.

The experiment is the same for the next values; noted with them: same conditions as 3 μg/mL comparison.
For `Nc1ccn([C@@H]2O[C@H](CO)[C@@H](O)[C@@H]2O)c(=O)n1` [Ara C, reference compound], the effect on proliferation result is reported as “do not showed effect”.
The same measure, in the same setting: the value for `O=P1(N(CCCl)CCCl)NCCCO1` (stereo not drawn) [Ciclophosfamide, reference compound] was “do not showed effect”.
Same read-out and setting: with `CN(Cc1cnc2nc(N)nc(N)c2n1)c1ccc(C(=O)N[C@@H](CCC(=O)O)C(=O)O)cc1` [Metotrexate, reference compound] the entry was “do not showed effect”; with Bleomicine [reference compound], “do not showed effect”.
